How the values were obtained:
[1] = target: Tyrosine-protein kinase Tec (Homo sapiens) (UniProt P42680); assay: Inhibition of human TEC (359- 631) expressed in baculovirus expression system at 0.3 uM by mobility shift assay
[2] = test system: Proto-oncogene tyrosine-protein kinase receptor Ret (Homo sapiens), P07949 [S891A]; assay: Inhibition of human RET S891A mutant (658 - 1114) expressed in baculovirus expression system at 0.3 uM by mobility shift assay
[3] = MRT (0 to last) in dog at 1 mg/kg, iv; format: ADME, organism-based, Canis lupus familiaris; conditions: in vivo
[4] = MRT (0 to last) in dog at 5 mg/kg, po; format: ADME, organism-based, Canis lupus familiaris; conditions: in vivo
[5] = MRT (0 to last) in rat at 15 mg/kg, po; format: ADME, organism-based; conditions: in vivo
[6] = MRT (0 to last) in rat at 2 mg/kg, iv; format: ADME, organism-based; conditions: in vivo
[7] = MRT (0 to last) in mouse at 2 mg/kg, iv; format: ADME, organism-based; conditions: in vivo
[8] = MRT (0 to last) in mouse at 15 mg/kg, po; format: ADME, organism-based; conditions: in vivo
[9] = target: T1, Proto-oncogene tyrosine-protein kinase Src (Homo sapiens, UniProt P12931); assay: Inhibition of human full length SRC expressed in baculovirus expression system at 0.3 uM by mobility shift assay
[10] = target: Muscle, skeletal receptor tyrosine-protein kinase (Homo sapiens) (UniProt O15146); assay: Inhibition of human MUSK expressed in baculovirus expression system at 0.3 uM by mobility shift assay
[11] = target: Tyrosine-protein kinase ITK/TSK (Homo sapiens) (UniProt Q08881); assay: Inhibition of human ITK (2 - 620 residues) expressed in baculovirus expression system at 0.3 uM by mobility shift assay
[12] = target: T2, Epithelial discoidin domain-containing receptor 1 (Homo sapiens, UniProt Q08345); assay: Inhibition of human DDR1 (444 - 876 residues) expressed in baculovirus expression system at 0.3 uM by mobility shift assay
[13] = target: Cytoplasmic tyrosine-protein kinase BMX (Homo sapiens) (UniProt P51813); assay: Inhibition of human full-length BMX (1 to 675 residues) expressed in baculovirus expression system at 0.3 uM by mobility shift assay
[14] = test system: Tyrosine-protein kinase BTK (Homo sapiens), Q06187 [C481S]; assay: Inhibition of human full-length BTK C481S mutant (2 to 659 residues) expressed in baculovirus expression system at 0.3 uM by mobility shift assay
[15] = target: T3, Tyrosine-protein kinase BTK (Homo sapiens, UniProt Q06187); assay: Inhibition of human full-length BTK (2 to 659 residues) expressed in baculovirus expression system at 0.3 uM by mobility shift assay
[16] = target: T3, Tyrosine-protein kinase BTK; assay: Inhibition of human BTK-A using phosphorylated substrate in presence of ATP by microplate reader assay
OCI-Ly10 [17] = assay: Antiproliferative activity against human OCILY10 cells assessed as reduction in cell proliferation measured after 96 hrs; format: functional, cell-based; conditions: OCI-Ly10, 96 h
[18] = Apparent permeability of the compound in human Caco-2 cells; format: ADME, cell-based
[19] = target: Cytoplasmic tyrosine-protein kinase BMX (Homo sapiens, UniProt P51813); assay: Inhibition of human full-length BMX (1 to 675 residues) expressed in baculovirus expression system by mobility shift assay
[20] = target: T2, Epithelial discoidin domain-containing receptor 1; assay: Inhibition of human DDR1 (444 - 876 residues) expressed in baculovirus expression system by mobility shift assay
[21] = target: Tyrosine-protein kinase ITK/TSK (Homo sapiens, UniProt Q08881); assay: Inhibition of human ITK (2 - 620 residues) expressed in baculovirus expression system by mobility shift assay
[22] = target: Muscle, skeletal receptor tyrosine-protein kinase (Homo sapiens, UniProt O15146); assay: Inhibition of human MUSK expressed in baculovirus expression system by mobility shift assay
[23] = target: T1, Proto-oncogene tyrosine-protein kinase Src; assay: Inhibition of human full length SRC expressed in baculovirus expression system by mobility shift assay
[24] = target: Tyrosine-protein kinase Tec (Homo sapiens, UniProt P42680); assay: Inhibition of human TEC (359 - 631 residues) expressed in baculovirus expression system by mobility shift assay
[25] = target: T3, Tyrosine-protein kinase BTK; assay: Inhibition of wild type BTK (unknown origin) in presence of 1 mM ATP by microplate reader assay
[26] = target: Tyrosine-protein kinase BTK (Homo sapiens, UniProt Q06187, C481S); assay: Inhibition of BTK C481S mutant (unknown origin) in presence of 1 mM ATP by microplate reader assay
OCI-Ly10 [27] = assay: Antiproliferative activity against human OCILY10 cells harboring BTK C481S mutant […] gene assessed as reduction in cell viability after 96 hrs; format: functional, cell-based; conditions: OCI-Ly10, 96 h
HEL 299 = assay: Cytotoxicity against human HEL 299 cells assessed as cell growth inhibition measured after 96 hrs; format: cell-based; conditions: HEL 299, 96 h
[28] = Plasma protein binding in human; format: ADME, cell-free; conditions: read-out: PPB (converted)
[29] = Plasma protein binding in mouse; format: ADME, cell-free; conditions: read-out: PPB (converted)
[30] = Plasma protein binding in rat; format: ADME, cell-free; conditions: read-out: PPB (converted)
[31] = Plasma protein binding in dog; format: ADME, cell-free, Canis lupus familiaris; conditions: read-out: PPB (converted)
[32] = Metabolic stability in human hepatocytes assessed as Intrinsic clearance; format: ADME, cell-based, Hepatocyte
[33] = Metabolic stability in mouse hepatocytes assessed as Intrinsic clearance; format: ADME, cell-based, Hepatocyte
[34] = Metabolic stability in rat hepatocytes assessed as Intrinsic clearance; format: ADME, cell-based, Hepatocyte
[35] = Metabolic stability in dog hepatocytes assessed as Intrinsic clearance; format: ADME, cell-based, Canis lupus familiaris, Hepatocyte
Cytochrome P450 1A2 = Cytochrome P450 1A2 (Homo sapiens, UniProt P05177); assay: Inhibition of CYP1A2 (unknown origin); format: ADME
Cytochrome P450 2B6 = Cytochrome P450 2B6 (Homo sapiens, UniProt P20813); assay: Inhibition of CYP2B6 (unknown origin); format: ADME
Cytochrome P450 2C19 = Cytochrome P450 2C19 (Homo sapiens, UniProt P33261); assay: Inhibition of CYP2C19 (unknown origin); format: ADME
Cytochrome P450 2D6 = Cytochrome P450 2D6 (Homo sapiens, UniProt P10635); assay: Inhibition of […] (unknown origin); format: ADME
Cytochrome P450 3A4 = Cytochrome P450 3A4 (Homo sapiens, UniProt P08684); assay: Inhibition of CYP3A4 (unknown origin); format: ADME
Sequence of Cytochrome P450 3A4 (P08684 whole entry): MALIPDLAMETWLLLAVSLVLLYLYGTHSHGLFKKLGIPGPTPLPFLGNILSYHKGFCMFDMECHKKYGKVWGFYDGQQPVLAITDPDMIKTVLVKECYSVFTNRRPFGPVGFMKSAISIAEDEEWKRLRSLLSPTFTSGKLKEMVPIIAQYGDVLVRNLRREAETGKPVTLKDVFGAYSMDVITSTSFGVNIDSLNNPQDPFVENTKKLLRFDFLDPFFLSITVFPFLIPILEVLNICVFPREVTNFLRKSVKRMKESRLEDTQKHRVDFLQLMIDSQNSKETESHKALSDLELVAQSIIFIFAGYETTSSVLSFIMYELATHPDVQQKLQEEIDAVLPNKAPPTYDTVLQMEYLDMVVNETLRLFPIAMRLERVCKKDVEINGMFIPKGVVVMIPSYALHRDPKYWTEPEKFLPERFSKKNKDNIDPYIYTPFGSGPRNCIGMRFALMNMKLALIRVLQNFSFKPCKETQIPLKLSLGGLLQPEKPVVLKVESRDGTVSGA

T3 sequence (Q06187 whole entry, the tested form may be a part): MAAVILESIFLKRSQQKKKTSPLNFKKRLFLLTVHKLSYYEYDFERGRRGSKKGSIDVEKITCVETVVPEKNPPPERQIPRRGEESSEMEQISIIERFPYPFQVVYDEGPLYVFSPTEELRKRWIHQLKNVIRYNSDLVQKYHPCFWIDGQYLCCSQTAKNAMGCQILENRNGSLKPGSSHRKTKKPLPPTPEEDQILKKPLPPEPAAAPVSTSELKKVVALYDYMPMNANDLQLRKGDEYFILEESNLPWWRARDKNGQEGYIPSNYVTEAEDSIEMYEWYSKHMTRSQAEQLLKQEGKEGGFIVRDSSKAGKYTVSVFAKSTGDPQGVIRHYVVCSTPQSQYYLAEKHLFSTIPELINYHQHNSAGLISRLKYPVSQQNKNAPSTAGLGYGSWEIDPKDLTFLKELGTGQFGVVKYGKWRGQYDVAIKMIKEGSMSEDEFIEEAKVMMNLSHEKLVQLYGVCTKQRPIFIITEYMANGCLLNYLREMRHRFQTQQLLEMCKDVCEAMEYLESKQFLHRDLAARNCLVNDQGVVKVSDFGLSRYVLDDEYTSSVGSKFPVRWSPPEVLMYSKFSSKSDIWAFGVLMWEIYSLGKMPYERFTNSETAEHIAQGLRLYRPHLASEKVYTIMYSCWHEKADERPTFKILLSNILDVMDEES
T1 sequence (P12931 2-536 limits assumed): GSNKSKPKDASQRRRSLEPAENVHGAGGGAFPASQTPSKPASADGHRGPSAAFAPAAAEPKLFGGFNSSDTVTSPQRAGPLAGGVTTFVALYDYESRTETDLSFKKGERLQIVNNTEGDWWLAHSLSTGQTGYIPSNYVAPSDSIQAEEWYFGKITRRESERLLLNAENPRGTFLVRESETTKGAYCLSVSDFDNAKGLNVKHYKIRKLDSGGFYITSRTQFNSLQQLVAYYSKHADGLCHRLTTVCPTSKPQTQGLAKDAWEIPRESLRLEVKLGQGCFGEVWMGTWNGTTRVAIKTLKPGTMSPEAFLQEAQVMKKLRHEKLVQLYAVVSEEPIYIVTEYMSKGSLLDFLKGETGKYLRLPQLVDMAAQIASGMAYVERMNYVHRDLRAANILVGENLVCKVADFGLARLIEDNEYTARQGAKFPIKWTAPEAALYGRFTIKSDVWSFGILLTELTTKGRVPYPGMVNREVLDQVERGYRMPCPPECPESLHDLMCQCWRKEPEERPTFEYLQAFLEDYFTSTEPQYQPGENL
T2 sequence (Q08345 whole entry, the tested form may be a part): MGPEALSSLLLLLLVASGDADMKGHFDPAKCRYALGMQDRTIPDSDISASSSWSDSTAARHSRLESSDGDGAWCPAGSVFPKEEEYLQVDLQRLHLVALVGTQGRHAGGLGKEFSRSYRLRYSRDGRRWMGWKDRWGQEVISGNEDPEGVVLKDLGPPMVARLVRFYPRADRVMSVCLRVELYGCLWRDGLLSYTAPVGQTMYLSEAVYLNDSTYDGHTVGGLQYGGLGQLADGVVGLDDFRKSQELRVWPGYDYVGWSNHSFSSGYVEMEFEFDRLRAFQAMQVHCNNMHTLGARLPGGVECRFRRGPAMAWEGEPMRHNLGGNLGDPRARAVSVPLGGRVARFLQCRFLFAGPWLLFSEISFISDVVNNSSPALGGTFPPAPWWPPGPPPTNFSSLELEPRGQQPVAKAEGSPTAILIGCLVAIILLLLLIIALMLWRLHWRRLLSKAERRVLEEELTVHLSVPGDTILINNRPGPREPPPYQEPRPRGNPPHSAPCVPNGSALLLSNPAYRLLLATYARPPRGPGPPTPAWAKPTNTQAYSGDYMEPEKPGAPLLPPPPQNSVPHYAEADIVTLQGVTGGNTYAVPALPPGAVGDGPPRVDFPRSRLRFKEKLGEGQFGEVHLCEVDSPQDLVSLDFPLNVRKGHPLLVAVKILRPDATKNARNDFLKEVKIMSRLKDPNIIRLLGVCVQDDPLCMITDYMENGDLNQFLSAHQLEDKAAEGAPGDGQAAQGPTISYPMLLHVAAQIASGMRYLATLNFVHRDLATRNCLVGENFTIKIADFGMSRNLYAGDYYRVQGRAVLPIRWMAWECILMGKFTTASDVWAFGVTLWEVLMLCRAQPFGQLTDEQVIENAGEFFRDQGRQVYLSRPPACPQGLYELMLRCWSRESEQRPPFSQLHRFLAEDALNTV
Sequence of Tyrosine-protein kinase BTK (Homo sapiens), Q06187 [C481S] (Q06187 whole entry C481S, the tested form may be a part): as the sequence (Q06187 whole entry, the tested form may be a part) above, with C481S counted along it
Sequence of Cytoplasmic tyrosine-protein kinase BMX (P51813 whole entry, the tested form may be a part): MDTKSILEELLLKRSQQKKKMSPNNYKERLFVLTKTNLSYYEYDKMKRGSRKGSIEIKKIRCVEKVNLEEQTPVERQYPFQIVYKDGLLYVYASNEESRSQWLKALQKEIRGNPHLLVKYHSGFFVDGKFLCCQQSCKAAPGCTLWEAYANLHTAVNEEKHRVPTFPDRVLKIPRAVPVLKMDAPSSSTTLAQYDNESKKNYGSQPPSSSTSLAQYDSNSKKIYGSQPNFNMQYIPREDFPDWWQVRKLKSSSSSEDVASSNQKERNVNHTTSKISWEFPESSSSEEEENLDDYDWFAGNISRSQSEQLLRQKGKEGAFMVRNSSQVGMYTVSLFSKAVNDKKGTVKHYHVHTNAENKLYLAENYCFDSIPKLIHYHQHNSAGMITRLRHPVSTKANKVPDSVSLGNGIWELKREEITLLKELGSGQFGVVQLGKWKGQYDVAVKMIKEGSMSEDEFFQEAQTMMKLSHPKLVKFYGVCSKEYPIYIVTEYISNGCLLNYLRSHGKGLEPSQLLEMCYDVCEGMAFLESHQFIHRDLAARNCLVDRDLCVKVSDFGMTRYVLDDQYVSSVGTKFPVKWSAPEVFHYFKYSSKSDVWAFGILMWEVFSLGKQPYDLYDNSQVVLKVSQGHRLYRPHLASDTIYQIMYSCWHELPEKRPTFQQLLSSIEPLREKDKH
Sequence of Cytoplasmic tyrosine-protein kinase BMX (Homo sapiens) (P51813 whole entry, the tested form may be a part): as above
Sequence of Proto-oncogene tyrosine-protein kinase receptor Ret (Homo sapiens), P07949 [S891A] (P07949 whole entry S891A): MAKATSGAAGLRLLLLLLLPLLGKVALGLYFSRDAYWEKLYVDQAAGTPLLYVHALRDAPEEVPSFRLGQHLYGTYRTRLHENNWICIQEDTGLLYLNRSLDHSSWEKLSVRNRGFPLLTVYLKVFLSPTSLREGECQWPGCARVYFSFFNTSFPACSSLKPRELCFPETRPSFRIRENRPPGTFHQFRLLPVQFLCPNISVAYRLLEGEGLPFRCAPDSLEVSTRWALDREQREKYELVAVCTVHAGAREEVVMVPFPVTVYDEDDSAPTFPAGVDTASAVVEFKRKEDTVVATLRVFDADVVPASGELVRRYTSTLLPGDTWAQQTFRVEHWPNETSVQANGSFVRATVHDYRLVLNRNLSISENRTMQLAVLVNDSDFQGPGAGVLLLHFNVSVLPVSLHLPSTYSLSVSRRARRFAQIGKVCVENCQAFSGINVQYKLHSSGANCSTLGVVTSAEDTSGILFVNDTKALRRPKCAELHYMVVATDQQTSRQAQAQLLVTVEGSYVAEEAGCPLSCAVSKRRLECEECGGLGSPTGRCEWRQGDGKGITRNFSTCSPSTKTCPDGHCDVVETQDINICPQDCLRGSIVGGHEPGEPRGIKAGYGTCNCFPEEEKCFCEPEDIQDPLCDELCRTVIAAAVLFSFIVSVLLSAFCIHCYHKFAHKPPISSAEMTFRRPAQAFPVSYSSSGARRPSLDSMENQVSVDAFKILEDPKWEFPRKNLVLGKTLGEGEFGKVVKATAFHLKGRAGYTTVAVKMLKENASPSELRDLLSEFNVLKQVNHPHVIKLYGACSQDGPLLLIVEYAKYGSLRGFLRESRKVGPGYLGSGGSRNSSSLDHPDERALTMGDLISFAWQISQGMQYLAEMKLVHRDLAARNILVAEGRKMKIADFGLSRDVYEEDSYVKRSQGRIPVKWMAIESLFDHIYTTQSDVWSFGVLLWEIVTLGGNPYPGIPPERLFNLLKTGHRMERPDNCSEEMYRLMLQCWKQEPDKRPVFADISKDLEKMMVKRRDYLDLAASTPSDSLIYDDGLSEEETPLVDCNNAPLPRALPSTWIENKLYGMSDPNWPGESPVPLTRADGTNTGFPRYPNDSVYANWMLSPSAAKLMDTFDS
Sequence of Cytochrome P450 2C19 (P33261 whole entry): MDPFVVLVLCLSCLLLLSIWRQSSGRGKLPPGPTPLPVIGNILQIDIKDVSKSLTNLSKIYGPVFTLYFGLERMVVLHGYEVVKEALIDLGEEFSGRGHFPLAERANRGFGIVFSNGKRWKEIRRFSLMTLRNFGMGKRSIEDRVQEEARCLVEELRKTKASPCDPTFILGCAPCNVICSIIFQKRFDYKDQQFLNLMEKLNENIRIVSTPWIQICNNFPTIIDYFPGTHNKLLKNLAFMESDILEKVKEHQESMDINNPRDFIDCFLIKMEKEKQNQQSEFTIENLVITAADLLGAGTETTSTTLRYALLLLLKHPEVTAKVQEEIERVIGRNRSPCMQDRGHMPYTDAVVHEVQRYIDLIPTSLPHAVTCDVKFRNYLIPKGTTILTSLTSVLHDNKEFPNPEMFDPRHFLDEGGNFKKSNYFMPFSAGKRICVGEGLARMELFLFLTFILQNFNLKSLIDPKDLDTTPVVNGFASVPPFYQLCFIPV

## Nc1nc(-c2cccc(-n3ccc4cc(C5CC5)cc(F)c4c3=O)c2CO)c2cc(C3=CCN(C4COC4)CC3)[nH]c2n1 [MILREBRUTINIB]
[1]
  inhibition: 99.6%
[2]
  inhibition: 67%
[3]
  MRT last: 1.23 h
[4]
  MRT last: 2.3 h
[5]
  MRT last: 4.03 h
[6]
  MRT last: 2.92 h
[7]
  MRT last: 1.36 h
[8]
  MRT last: 3.58 h
[9]
  inhibition: 51.9%
[10]
  inhibition: 53.2%
[11]
  inhibition: 78.8%
[12]
  inhibition: 53.4%
[13]
  inhibition: 97.7%
[14]
  inhibition: 99.8%
[15]
  inhibition: 99.4%
[16]
  IC50: 0.85 nM
OCI-Ly10 [17]
  IC50: 2 nM
[18]
  Papp: 1.42 ×10⁻⁶ cm/s
[19]
  IC50: 8.49 nM
[20]
  IC50: 221 nM
[21]
  IC50: 60.9 nM
[22]
  IC50: 306 nM
[23]
  IC50: 291 nM
[24]
  IC50: 1.34 nM
[25]
  IC50: 3.72 nM
[26]
  IC50: 5.88 nM
OCI-Ly10 [27]
  IC50: 20.4 nM
HEL 299
  IC50: 6370 nM
[28]
  fraction unbound: 0.02
[29]
  fraction unbound: 0.008
[30]
  fraction unbound: 0.012
[31]
  fraction unbound: 0.015
[32]
  CLH: 0.76 mL/min/g
[33]
  CLH: 2.11 mL/min/g
[34]
  CLH: 2.04 mL/min/g
[35]
  CLH: 1.28 mL/min/g
Cytochrome P450 1A2
  IC50: > 10000 nM
Cytochrome P450 2B6
  IC50: > 10000 nM
Cytochrome P450 2C19
  IC50: > 10000 nM
Cytochrome P450 2D6
  IC50: > 10000 nM
Cytochrome P450 3A4
  IC50: > 10000 nM
